Results as given in patent US12358902B2, “5-(2,5-bis(4-chloro-2-isopropylphenyl)thiophen-3-yl)-1H-tetrazole for the topical treatment of bacterial infections” (DENOVAMED INC., priority 2017, dated 2025).
In brackets after ≈: the same amount, converted by molar mass.

How the values were obtained:
Clostridium spp. = experiment: activity against Clostridium spp.; assay type: cell-based
MRSA (ATCC #33591) = experiment: rabbit ischemic wound model; assay type: in vivo, New Zealand white rabbits; conditions: topical daily to day 14; p<0.001 vs control, p<0.03 vs mupirocin
Description: 5-(2,5-bis(4-chloro-2-isopropylphenyl)thiophen-3-yl)-1H-tetrazole was tested for its efficacy against infection in the rabbit ischemic wound model, the gold standard animal model mimicking human DUI. In this model, the ear is made ischemic by division of central and rostral nutrient arteries of New Zealand white rabbits. New Zealand White rabbits were employed for this study and their husbandry and experimental manipulation adhered to standard Guides for the Care and Use of Laboratory Animals (2001). An incision was made to the level of bare cartilage at the base of the ear and followed by injection intradermally with epinephrine to obtain vasoconstriction and aid with skin detachment. Skin is separated from the underlying perichondrium and removed with a 6.0 mm aortic biopsy punch. Food and water were given ad libidum and animals were acclimatized for 7 days with photoperiods of alternating 12 h light and dark provided, along with analgesic (BUPRENEX™ (buprenorphine) 0.02 mg/kg sc) and anaesthesia (isoflurane (0.5-5% with oxygen carrier 0.5-2 L/min) during procedures.
An ischemia wound healing model was conducted surgically. Each wound was inoculated with 50 μl of 2×10^7 CFU/ml MRSA (ATCC #33591) and dressed. After one day, wounds were treated with either 50 μl control cream containing vehicle (N=4), 50 μl containing mupirocin (N=4), or 50 μl cream containing 5-(2,5-bis(4-chloro-2-isopropylphenyl)thiophen-3-yl)-1H-tetrazole (N=8) daily. Clinical observations were performed on days 1, 3, 5, 7, 10 and 14. Wounds were assessed and observations recorded using the Draize scoring system. Digital photographs of each wound were obtained and documented.
On day 14 post-wounding, under anesthesia, the animals were euthanized with an intravenous injection of BEUTHANASIA-D™ ([…] and phenytoin sodium) at a dosage of 150 mg/kg of body weight. Specimens including the entire wound, along with approximately 2-3 mm of the normal unwounded skin margins were harvested. Each ear wound specimen was sectioned into halves. For one half of the wound, the wound was placed into a container with 10% neutral buffered formalin and processed for routine histological evaluation. Wound organization was scored for four parameters on a scale of 0-4 at the wound site for inflammation, granulation, angiogenesis, and epithelialization. Wounds were characterized in a blinded manner by a board certified member of the College of American Pathologists. The other half of the wound was weighed (mg) in a sterile Petri dish, then placed in a sterile disposable tissue grinder and homogenized for quantitative microbiology. The tube containing the ground tissue sample was filled with 5 ml 0.85% sterile saline. Five 1:10 serial dilutions were then prepared with 0.5 ml aliquots and 4.5 ml of sterile saline per aliquot. Subsequently, 0.1 ml of the homogenate and each dilution was drop plated on trypticase soy agar and placed in an incubator at 37° C. The number of viable organisms per wound was recorded as cfu/gram of tissue.

S. aureus MRSA ATCC43300 = experiment: broth microdilution MIC (CLSI); assay type: cell-based; conditions: Staphylococcus aureus, read-out: Antibacterial activity (MIC)
Description: (§1) Using a broth microdilution assay according to Clinical Laboratory Standards Institute (CSLI) guidelines, we tested 5-(2,5-bis(4-chloro-2-isopropylphenyl)thiophen-3-yl)-1H-tetrazole (“Test Article” in below table) to establish MICs against a broad range of MDR bacteria and noted substantive activity versus methicillin-resistant Staphylococcus aureus (MRSA), vancomycin-resistant Enterococcus (VRE) and Streptococcus spp. Antimicrobial susceptibility testing was performed by a microdilution broth assay according to CLSI guidelines. The inoculum was prepared from stationary-phase cultures diluted in water. Microtiter plate wells received aliquots of 100 μL of the compound diluted in Mueller-Hinton II cation adjusted media. The final concentration of compound typically ranged from 250 to 0.125 μg/ml in serial two-fold dilutions. In addition to the test compound, growth and sterility controls were included, along with DMSO vehicle control rows. The microtiter plates were inoculated with 5×10^5 bacteria and incubated overnight at 35° C. in a humidified atmosphere.

[1] = test system: S. aureus MRSA MISA MU3 NRS2; experiment: broth microdilution MIC (CLSI); assay type: cell-based; conditions: Staphylococcus aureus, read-out: Antibacterial activity (MIC)
Description: as §1

[2] = test system: S. aureus MRSA MISA MU50 NRS1; experiment: broth microdilution MIC (CLSI); assay type: cell-based; conditions: Staphylococcus aureus, read-out: Antibacterial activity (MIC)
Description: as §1

[3] = test system: S. aureus MRSA USA100 epidemic strain; experiment: broth microdilution MIC (CLSI); assay type: cell-based; conditions: Staphylococcus aureus, read-out: Antibacterial activity (MIC)
Description: as §1

[4] = test system: S. aureus MRSA USA200 epidemic strain; experiment: broth microdilution MIC (CLSI); assay type: cell-based; conditions: Staphylococcus aureus, read-out: Antibacterial activity (MIC)
Description: as §1

[5] = test system: S. aureus MRSA USA300 epidemic strain; experiment: broth microdilution MIC (CLSI); assay type: cell-based; conditions: Staphylococcus aureus, read-out: Antibacterial activity (MIC)
Description: as §1

[6] = test system: S. aureus MRSA clinical isolate ciprofloxacin resistant; experiment: broth microdilution MIC (CLSI); assay type: cell-based; conditions: Staphylococcus aureus, MRSA, read-out: Antibacterial activity (MIC)
Description: as §1

[7] = test system: S. aureus MRSA clinical isolate from Manchester; experiment: broth microdilution MIC (CLSI); assay type: cell-based; conditions: Staphylococcus aureus, MRSA, read-out: Antibacterial activity (MIC)
Description: as §1

[8] = test system: S. aureus MRSA clinical isolate multi resistant; experiment: broth microdilution MIC (CLSI); assay type: cell-based; conditions: Staphylococcus aureus, MRSA, read-out: Antibacterial activity (MIC)
Description: as §1

[9] = test system: S. aureus MRSA clinical isolate penicillin and erythromycin resistant; experiment: broth microdilution MIC (CLSI); assay type: cell-based; conditions: Staphylococcus aureus, MRSA, read-out: Antibacterial activity (MIC)
Description: as §1

CC(C)c1cc(Cl)ccc1-c1cc(-c2nnn[nH]2)sc1-c1ccc(Cl)cc1C(C)C [5-(4,5-bis(4-chloro-2-isopropylphenyl)thiophen-2-yl)-1H-tetrazole, reference compound]
activity (Clostridium spp.): inactive

C/C(=C\C(=O)OCCCCCCCCC(=O)O)C[C@@H]1OC[C@H](C[C@@H]2O[C@H]2[C@@H](C)[C@H](C)O)[C@@H](O)[C@H]1O [mupirocin, reference compound]
percent wound contraction over time (FIG. 1) (MRSA (ATCC #33591)): control group had less wound contraction than either treated group

CN[C@H](CC(C)C)C(=O)N[C@H]1C(=O)N[C@@H](CC(N)=O)C(=O)N[C@H]2C(=O)N[C@H]3C(=O)N[C@H](C(=O)N[C@H](C(=O)O)c4cc(O)cc(O)c4-c4cc3ccc4O)[C@H](O)c3ccc(c(Cl)c3)Oc3cc2cc(c3O[C@@H]2O[C@H](CO)[C@@H](O)[C@H](O)[C@H]2O[C@H]2C[C@](C)(N)[C@H](O)[C@H](C)O2)Oc2ccc(cc2Cl)[C@H]1O [vancomycin, reference compound]
MIC (S. aureus MRSA ATCC43300): 0.5 µg/mL (≈ 0.345 µM)
MIC [1]: 1 µg/mL (≈ 0.69 µM)
MIC [2]: 4 µg/mL (≈ 2.76 µM)
MIC [3]: 1 µg/mL (≈ 0.69 µM)
MIC [4]: 0.5 µg/mL (≈ 0.345 µM)
MIC [5]: 1 µg/mL (≈ 0.69 µM)
MIC [6]: 0.5 µg/mL (≈ 0.345 µM)
MIC [7]: 0.5 µg/mL (≈ 0.345 µM)
MIC [8]: 0.5 µg/mL (≈ 0.345 µM)
MIC [9]: 1 µg/mL (≈ 0.69 µM)
